Laboratory results taken from patent US7767626B2, “3-arylphenyl sulfide derivative and insecticide and miticide” (Kumiai Chemical Industry Co., Ltd., priority 1998, dated 2010).
Like-named read-outs stand apart in the source and are kept apart here.

Assays:
two-spotted spider mites = experiment: Insecticidal test on two-spotted spider mites (Test Example 1); assay type: in vivo; settings: Tetranychus urticae, 312 h, read-out: preventive value
Text: Test Example 1 Insecticidal Test on Two-Spotted Spider Mites

[1] = wettable powder diluted to 500 ppm active ingredient, soybean seedlings inoculated with adult mites immersed, survivors counted after 13 days, Equation 1

melting point [°C] | SMILES | pest or weed control at 500 µg/mL (two-spotted spider mites; [1]) [%] | pest or weed control at 500 µg/mL (two-spotted spider mites; in Glycine max) [%]
– | CSc1cc(-c2ccccc2)c(C#N)c(N)c1C#N [Comparative Compound 1, 2-amino-6-methylthio-4-phenyl-benzene-1,3-dicarbonitrile, reference compound] | 0 | –
– | CSc1cc(-c2ccccc2)c(C#N)c(N)c1[N+](=O)[O-] [Comparative Compound 2, 2-amino-6-phenyl-4-methylthio-3-nitrobenzonitrile, reference compound] | 0 | –
89 to 92 | CCSc1cc(-c2ccc(Cl)cc2Cl)ccc1C#N | – | –
135 to 136 | N#Cc1ccc(-c2ccc(C(F)(F)F)cn2)cc1SCC1CC1 [I I-5, 2-cyclopropylmethylthio-4-(5-trifluoromethylpyridin-2-yl)benzonitrile] | ≥ 90 | –
90 to 91 | N#Cc1ccc(-c2n[nH]cc2C(F)(F)F)cc1SCC(F)(F)F [Compound V-639, 2-(2,2,2-trifluoroethylthio)-4-(4-trifluoromethylpyrazolyl)benzonitrile] | ≥ 90 | –
123 to 124 | N#Cc1ccc(-c2ccc(Cl)s2)cc1SCC1CC1 [I V-5, 4-(5-chlorothiophen-2-yl)-2-cyclopropylmethylthiobenzonitrile] | ≥ 90 | –
– | CCOCOc1ccc(-c2ccc(C(F)(F)F)cc2)cc1SCC(F)(F)F [Compound I-213, [2-ethoxymethoxy-5-(4-trifluoromethylphenyl)phenyl] 2,2,2-trifluoroethyl sulfide] | – | ≥ 90

SMILES | melting point [°C] | pest or weed control at 500 µg/mL (two-spotted spider mites; [1]) [%] | pest or weed control at 500 µg/mL (two-spotted spider mites; in Glycine max) [%]
C=CCSc1cc(-c2ccc(C(F)(F)F)cc2)ccc1C#N [Compound I-42, 2-(2-propenylthio)-4-(4-trifluoromethylphenyl)benzonitrile] | 89 to 90 | – | ≥ 90
CCCSc1cc(-c2ccc(C(F)(F)F)cc2)c(F)cc1[N+](=O)[O-] [Compound I-221, [4-fluoro-2-nitro-5-(4-trifluoromethylphenyl)phenyl] propyl sulfide] | 57 to 59 | – | ≥ 90
